Values quoted from earlier work in paper PMC5488394, “30 YEARS OF THE MINERALOCORTICOID RECEPTOR: Mineralocorticoid receptor antagonists: 60 years of research and development” (The Journal of Endocrinology, 2017).
Like-named read-outs stand apart in the source and are kept apart here.

Assays:
[1] = cited from earlier work; for mean half-life of spironolactone metabolite: healthy volunteers; for peak absolute plasma concentration / peak relative plasma concentration: steady state after oral 100 mg spironolactone per day
S810L MR mutant = system: S810L MR mutant; design: method as in Geller et al. 2000, Amazit et al. 2015; conditions: ref Geller et al. 2000, Amazit et al. 2015; cited from earlier work
[2] = system: estrogen-primed immature rabbits; design: method as in Hertz & Tullner 1958; conditions: Clauberg assay; ref Hertz & Tullner 1958; cited from earlier work
[3] = system: mineralocorticoid-dependent sodium retention; conditions: cited from earlier work
[4] = design: method as in Liddle 1957; conditions: patient with congestive heart failure and patient with Addison's disease; ref Liddle 1957; cited from earlier work
MR = system: MR; design: method as in Losert et al. 1985; conditions: ref Losert et al. 1985; cited from earlier work
[5] = cited from earlier work
[6] = design: method as in Weinberger et al. 2002; conditions: 100 mg OD or 50 mg BID, hypertensive patients; ref Weinberger et al. 2002; cited from earlier work
[7] = radioactively labeled, rats; ref Kolkhof & Borden 2012; cited from earlier work
[8] = design: method as in de Gasparo et al. 1989; conditions: fludrocortisone challenge, healthy volunteers; 50 mg vs 25 mg spironolactone; ref de Gasparo et al. 1989; cited from earlier work
[9] = system: Dahl salt-sensitive hypertensive rats; design: method as in Arai et al. 2015b; conditions: ref Arai et al. 2015b, cited from earlier work; for cardiorenal protection: 100 mg/kg
human MR = system: human MR; design: method as in Arai et al. 2015a; conditions: ref Arai et al. 2015a; read-out: IC50, block of aldosterone-induced transcriptional activation of human MR; cited from earlier work
human plasma proteins = conditions: cited from earlier work
[10] = ref Pitt et al. 2003, cited from earlier work
[11] = system: MR over other steroid hormone receptors; design: method as in Arai et al. 2015a; conditions: in vitro; ref Arai et al. 2015a; cited from earlier work
DOCA/salt-loading rats = conditions: cited from earlier work
[12] = cited from earlier work; remark: listed apart in the source
aldosterone receptor = system: aldosterone receptor; design: method as in Claire et al. 1979; conditions: ref Claire et al. 1979; cited from earlier work
[13] = system: aldosterone-induced cardiac necrosis; design: method as in Selye 1960; conditions: rats; ref Selye 1960; cited from earlier work
dogs and monkeys = conditions: ref Lumb et al. 1978; cited from earlier work
[14] = design: method as in Kolkhof & Borden 2012; conditions: mice; ref Kolkhof & Borden 2012; cited from earlier work
[15] = design: method as in Pitt et al. 1999; conditions: low dose on top of standard of care; ref Pitt et al. 1999; cited from earlier work
rats = conditions: cited from earlier work
rat androgen receptor = system: rat androgen receptor; design: method as in Laurent et al. 1983; conditions: ref Laurent et al. 1983; cited from earlier work
progesterone receptor = system: progesterone receptor; design: method as in Laurent et al. 1983; conditions: estrogen-primed rabbit uterus; ref Laurent et al. 1983; cited from earlier work
urinary Na+/K+ ratio = system: urinary Na+/K+ ratio; design: method as in Casals-Stenzel et al. 1984; conditions: rats, on average; ref Casals-Stenzel et al. 1984; cited from earlier work
[16] = system: rat renal cytoplasmatic MR; design: method as in Casals-Stenzel et al. 1984; conditions: ref Casals-Stenzel et al. 1984; cited from earlier work
[17] = ref Karim 1978, Garthwaite & McMahon 2004
[18] = single oral dose 50 mg, healthy subjects, ref Thosar et al. 2003

SMILES: CS[C@H]1[C@@H]2[C@H](CC[C@@]3(C)[C@H]2CC[C@@]32CCC(=O)O2)[C@@]2(C)CCC(=O)C=C2[C@@H]1O [HTMS, 6β-hydroxy-7α-thiomethyl-spironolactone]
- mean half-life of spironolactone metabolite [1, 17]: 15.0 h
- peak absolute plasma concentration ([1]; ref Gardiner et al. 1989): 125 ng/mL
- peak relative plasma concentration ([1]; ref Gardiner et al. 1989): 16.1%

SMILES: CC(=O)[C@H]1CC[C@H]2[C@@H]3CCC4=CC(=O)CC[C@]4(C)[C@H]3CC[C@]12C [Progesterone]
- effect on S810L MR mutant (S810L MR mutant): paradoxically activate

SMILES: C[C@]12CCC(=O)C=C1CC[C@@H]1[C@@H]2CC[C@@]2(C)[C@H]1CC[C@@]21CCC(=O)O1 [SC-5233, 3-(3-oxo-17β-hydroxy-4-androsten-17α-yl)propionic acid γ-lactone]
- in vivo progestational activity [2]: substantial in vivo progestational activity
- antagonistic efficacy in mineralocorticoid-dependent models ([3]; strictly dependent on presence of a mineralocorticoid, ref Kagawa et al. 1959): convincing antagonistic efficacy
- natriuretic activity in patients [4]: natriuretic activity

SMILES: C[C@]12CC[C@H]3[C@@H](CCC4=CC(=O)CC[C@@H]43)[C@@H]1CC[C@@]21CCC(=O)O1 [SC-8109]
- in vivo progestational activity [2]: substantial in vivo progestational activity
- potency on mineralocorticoid-dependent sodium retention relative to SC-5233 ([3]; adrenalectomized rats, ref Kagawa et al. 1957): more potent than SC-5233

SMILES: CS[C@@H]1CC2=CC(=O)CC[C@]2(C)[C@H]2CC[C@@]3(C)[C@@H](CC[C@@]34CCC(=O)O4)[C@H]12 [TMS, 7α-thiomethyl-spironolactone]
- mean half-life of spironolactone metabolite [1, 17]: 13.8 h
- peak absolute plasma concentration ([1]; ref Gardiner et al. 1989): 391 ng/mL
- peak relative plasma concentration ([1]; ref Gardiner et al. 1989): 50.3%

SMILES: C[C@]12CCC(=O)C=C1C=C[C@@H]1[C@@H]2CC[C@@]2(C)[C@H]1CC[C@@]21CCC(=O)O1 [canrenone]
- mean half-life of spironolactone metabolite [1, 17]: 16.5 h
- canrenone proportion of metabolites after spironolactone ([1]; multiple doses, ref Gardiner et al. 1989): about 23%
- canrenone proportion of metabolites after spironolactone ([1]; single dose, ref Merkus et al. 1983): about 15%
- peak absolute plasma concentration ([1]; ref Gardiner et al. 1989): 181 ng/mL
- peak relative plasma concentration ([1]; ref Gardiner et al. 1989): 23.3%

SMILES: C[C@]12CCC(=O)C=C1[C@@H]1C[C@@H]1[C@H]1[C@@H]3[C@@H]4C[C@@H]4[C@@]4(CCC(=O)O4)[C@@]3(C)CC[C@@H]12 [drospirenone, 1,2-dihydro-spirorenone]
- potency relative to spironolactone on the MR in rats (MR): eight times more potent

SMILES: COC(=O)[C@@H]1CC2=CC(=O)CC[C@]2(C)[C@@]23O[C@@H]2C[C@@]2(C)[C@@H](CC[C@@]24CCC(=O)O4)[C@H]13 [eplerenone, 9-11α-epoxymexrenone]
- active metabolites ([5]; ref Kolkhof & Borden 2012): no active metabolites
- duration of natriuretic effect [5, 18]: ~ 10 h
- half-life [5, 18]: 2.9 h
- half-life ([5]; steady state after multiple doses of 100 mg, ref Cook et al. 2003): 4 h
- efficacy compared to 50 mg spironolactone twice daily [6]: 50–75%
- accumulation of drug equivalent concentration in kidneys compared with heart tissue [7]: ≥ 3 fold
- natriuretic activity vs spironolactone [8]: rough equi-efficacy
- effect on S810L MR mutant (S810L MR mutant): paradoxically activate
- cardiorenal protection [9]: only partial cardiorenal protection
- IC50 (human MR): 0.97 µM
- bound fraction (plasma proteins) (human plasma proteins; ref Inspra Prescribing Information 2002): about 50%
- incidence of serious hyperkalemia (≥6 mmol/L) vs placebo ([10]; P = 0.002): significantly higher
- primary endpoint, death from any cause or hospitalization for CV events ([10]; vs placebo, mean follow-up 16 months): significantly reduced

SMILES: Cc1c(C(=O)Nc2ccc(S(C)(=O)=O)cc2)cn(CCO)c1-c1ccccc1C(F)(F)F [esaxerenone, (5S)-1-(2-hydroxyethyl)-4-methyl-N-[4-(methylsulfonyl)phenyl]-5-[2-(trifluoromethyl)phenyl]-1H-pyrrole-3-carboxamide]
- selectivity for MR over other steroid hormone receptors [11]: ≥ 1000 fold
- antihypertensive effect ([9]; chronic treatment, 0.5 mg/kg equivalent to spironolactone or eplerenone 100 mg/kg): dose-dependent antihypertensive effect
- reduction of proteinuria and renal hypertrophy, potency vs spironolactone and eplerenone [9]: superior potency
- IC50 (human MR): 0.0037 µM
- antihypertensive activity vs spironolactone or eplerenone (DOCA/salt-loading rats; DOCA/salt-loading rats, ref Arai et al. 2015a): more pronounced antihypertensive activity
- effect on hypertension and renal injury in DOCA rats (DOCA/salt-loading rats; ref Arai et al. 2016): not only prevented but also ameliorated

SMILES: CC(=O)S[C@@H]1CC2=CC(=O)C=C[C@]2(C)[C@H]2CC[C@@]3(C)[C@@H]([C@@H]4C[C@@H]4[C@@]34CCC(=O)O4)[C@H]12 [mespirenone, 15β,16β-methylene-spironolactone]
- natriuretic potency relative to spironolactone ([12]; healthy volunteers, ref Losert et al. 1986): 6 fold

SMILES: C[C@]12CCC(=O)C=C1[C@@H]1C[C@@H]1[C@@H]1[C@@H]2CC[C@@]2(C)[C@H]1CC[C@@]21CCC(=O)O1 [prorenone]
- effect on nuclear translocation of the aldosterone receptor (aldosterone receptor): blocks nuclear translocation

SMILES: CC(=O)S[C@@H]1CC2=CC(=O)CC[C@]2(C)[C@H]2CC[C@@]3(C)[C@@H](CC[C@@]34CCC(=O)O4)[C@H]12 [spironolactone, 7α-acetylthio-17α-hydroxy-3-oxopregn-4-ene-21-carboxylic acid γ-lactone]
- protection from aldosterone-induced cardiac necrosis [13]: protected
- tumorigenic or carcinogenic potential in chronic dog and monkey studies (dogs and monkeys): no tumorigenic or carcinogenic potential
- whole radioactivity in cardiac tissue [14]: below the detection limit
- mortality in severe heart failure [15]: mortality reduction
- effect on S810L MR mutant (S810L MR mutant): paradoxically activate
- cardiorenal protection [9]: only partial cardiorenal protection
- bound to human plasma proteins (human plasma proteins; ref Chien et al. 1976): 94%
- tumor finding, 104-week rat study (rats; 10, 30 and 100 mg/kg/day, ref Aldactone NDA 2008): significant increases in hepatocellular adenomas and benign testicular and thyroid adenomas
- tumor finding, 78-week rat study (rats; male rats, 500 mg/kg, 78 weeks, ref Mayer et al. 1988): increased numbers of benign testicular adenomas
- finding in chronic toxicity studies in rats (rats; rat, in vivo): tumorigenic
- plasma half-life [1, 17]: less than 2 h

SMILES: C[C@]12C=CC(=O)C=C1[C@@H]1C[C@@H]1[C@H]1[C@@H]3[C@@H]4C[C@@H]4[C@@]4(CCC(=O)O4)[C@@]3(C)CC[C@@H]12 [spirorenone]
- affinity for the rat androgen receptor (rat androgen receptor): practically no affinity
- affinity for the progesterone receptor vs spironolactone (progesterone receptor): higher affinity
- potency relative to spironolactone, urinary sodium excretion ([12]; single dose, healthy individuals, ref Seifert et al. 1982): at least 4 times
- in vivo activity on urinary Na+/K+ ratio relative to spironolactone (urinary Na+/K+ ratio): 8.6 times
- affinity for rat renal cytoplasmatic MR relative to spironolactone [16]: 0.73 times
